Results as given in patent publication US9296725B2, “Heterocyclyl pyrimidine analogues as TYK2 inhibitors” (Cellzome Limited, priority 2012, dated 2016).

Tests used:
TYK2 = molecular target: T1, TYK2 (Homo sapiens, UniProt P29597); assay: Kinobeads assay, TYK2 (competition binding in mixed Molt4/Ramos cell lysate, dot blot detection); conditions: Kinobeads assay, Molt4/Ramos lysate; read-out: TYK2 Band (Kinobeads assay potency, IC50)
T1 construct: endogenous in cells; host or cells: Molt4 (ATCC CRL-1582) and Ramos (ATCC CRL-1596), mixed lysate 1:2
T1 sequence (P29597 whole entry): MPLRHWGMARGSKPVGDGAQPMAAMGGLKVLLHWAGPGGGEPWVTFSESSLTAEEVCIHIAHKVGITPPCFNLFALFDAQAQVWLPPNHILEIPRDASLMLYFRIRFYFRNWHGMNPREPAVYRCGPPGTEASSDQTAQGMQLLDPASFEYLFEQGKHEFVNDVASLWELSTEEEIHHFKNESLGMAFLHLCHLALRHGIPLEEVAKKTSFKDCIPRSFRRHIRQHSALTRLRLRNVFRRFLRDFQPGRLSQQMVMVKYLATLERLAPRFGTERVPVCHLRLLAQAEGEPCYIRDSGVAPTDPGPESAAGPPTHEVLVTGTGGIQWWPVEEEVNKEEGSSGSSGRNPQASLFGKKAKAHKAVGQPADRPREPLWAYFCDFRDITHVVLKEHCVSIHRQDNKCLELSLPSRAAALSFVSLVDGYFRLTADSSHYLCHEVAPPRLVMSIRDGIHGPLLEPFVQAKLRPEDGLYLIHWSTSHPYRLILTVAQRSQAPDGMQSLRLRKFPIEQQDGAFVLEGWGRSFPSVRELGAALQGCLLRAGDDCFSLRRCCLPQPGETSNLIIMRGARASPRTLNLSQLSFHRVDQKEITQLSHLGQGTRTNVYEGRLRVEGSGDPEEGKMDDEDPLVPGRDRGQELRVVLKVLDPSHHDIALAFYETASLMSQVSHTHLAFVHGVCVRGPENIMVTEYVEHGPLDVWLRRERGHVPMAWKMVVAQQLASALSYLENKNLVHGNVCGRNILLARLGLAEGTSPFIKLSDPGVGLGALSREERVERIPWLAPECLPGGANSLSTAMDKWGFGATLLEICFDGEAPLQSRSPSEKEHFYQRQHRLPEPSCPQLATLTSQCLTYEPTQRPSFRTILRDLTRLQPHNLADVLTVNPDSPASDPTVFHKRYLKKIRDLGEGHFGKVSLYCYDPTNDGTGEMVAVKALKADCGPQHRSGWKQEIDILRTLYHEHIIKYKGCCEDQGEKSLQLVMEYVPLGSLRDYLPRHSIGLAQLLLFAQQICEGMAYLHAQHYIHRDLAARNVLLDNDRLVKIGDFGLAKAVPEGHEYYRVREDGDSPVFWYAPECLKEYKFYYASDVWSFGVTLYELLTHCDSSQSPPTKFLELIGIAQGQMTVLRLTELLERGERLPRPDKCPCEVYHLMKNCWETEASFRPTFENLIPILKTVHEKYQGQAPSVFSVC
Method: (§1) The compounds of the present invention as described in the previous examples were tested in a Kinobeads™ assay as described for ZAP-70 (WO-A 2007/137867). Briefly, test compounds (at various concentrations) and the affinity matrix with the immobilized aminopyrido-pyrimidine ligand 24 were added to cell lysate aliquots and allowed to bind to the proteins in 10 the lysate sample. After the incubation time the beads with captured proteins were separated from the lysate. Bound proteins were then eluted and the presence of TYK2 and JAK2 was detected and quantified using specific antibodies in a dot blot procedure and the Odyssey infrared detection system. Dose response curves for individual kinases were generated and IC50 values calculated. Kinobeads™ assays have been previously described (WO-A 2007/137867; WO-A 2006/134056).
(§2) The affinity matrix was washed two times with 15 mL of 1×DP buffer containing 0.2% NP40 (IGEPAL® CA-630, Sigma, #13021) and then resuspended in 1×DP buffer containing 0.2% NP40 (3% beads slurry). 5×DP buffer: 250 mM Tris-HCl pH 7.4, 25% Glycerol, 7.5 mM MgCl2, 750 mM NaCl, 5 mM Na3VO4; filter the 5×DP buffer through a 0.22 μm filter and store in aliquots at −80° C. The 5×DP buffer is diluted with H2O to 1×DP buffer containing 1 mM DTT and 25 mM NaF.
(§3) Stock solutions of test compounds were prepared in DMSO. In a 96 well plate 30 μL solution of diluted test compounds at 5 mM in DMSO were prepared. Starting with this solution a 1:3 dilution series (9 steps) was prepared. For control experiments (no test compound) a buffer containing 2% DMSO was used.
(§4) Molt4 cells (ATCC catalogue number CRL-1582) and Ramos cells (ATCC catalogue number CRL-1596) were grown in 1 L Spinner flasks (Integra Biosciences, #182101) in suspension in RPMI 1640 medium (Invitrogen, #21875-034) supplemented with 10% Fetal Bovine Serum (Invitrogen) at a density between 0.15×10^6 and 1.2×10^6 cells/mL. Cells were harvested by centrifugation, washed once with 1×PBS buffer (Invitrogen, #14190-094) and cell pellets were frozen in liquid nitrogen and subsequently stored at −80° C. Cells were homogenized in a Potter S homogenizer in lysis buffer: 50 mM Tris-HCl, 0.8% NP40, 5% glycerol, 150 mM NaCl, 1.5 mM MgCl2, 25 mM NaF, 1 mM sodium vanadate, 1 mM DTT, pH 7.5. One complete EDTA-free tablet (protease inhibitor cocktail, Roche Diagnostics, 1873580) per 25 mL buffer was added. The material was dounced 10 times using a mechanized POTTER S, transferred to 50 mL falcon tubes, incubated for 30 minutes on ice and spun down for 10 minutes at 20,000 g at 4° C. (10,000 rpm in Sorvall SLA600, precooled). The supernatant was transferred to an ultracentrifuge (UZ)-polycarbonate tube (Beckmann, 355654) and spun for 1 hour at 100.000 g at 4° C. (33.500 rpm in Ti50.2, precooled). The supernatant was transferred again to a fresh 50 mL falcon tube, the protein concentration was determined by a Bradford assay (BioRad) and samples containing 50 mg of protein per aliquot were prepared. The samples were immediately used for experiments or frozen in liquid nitrogen and stored frozen at −80° C.
(§5) Cell lysate (approximately 50 mg protein per plate) was thawed in a water bath at room temperature and then stored on ice. To the thawed cell lysate 1×DP 0.8% NP40 buffer containing protease inhibitors (1 tablet for 25 mL buffer; EDTA-free protease inhibitor cocktail; Roche Diagnostics 1873580) was added in order to reach a final protein concentration of 10 mg/mL total protein. The diluted cell lysate was stored on ice. Mixed Molt4/Ramos lysate was prepared by combining one volume of Molt4 lysate and two volumes of Ramos lysate (ratio 1:2).
(§6) To a 96 well filter plate (Multiscreen HTS, BV Filter Plates, Millipore #MSBVN1250) were added per well: 100 μL affinity matrix (3% beads slurry), 3 μL of compound solution, and 50 μL of diluted lysate. Plates were sealed and incubated for 3 hours in a cold room on a plate shaker (Heidolph tiramax 1000) at 750 rpm. […]

JAK2 = molecular target: T2, JAK2 (Homo sapiens, UniProt O60674); assay: Kinobeads assay, JAK2 (competition binding in mixed Molt4/Ramos cell lysate, dot blot detection); conditions: read-out: JAK2 Band (Kinobeads assay potency, IC50)
T2 construct: endogenous in cells; host or cells: Molt4 (ATCC CRL-1582) and Ramos (ATCC CRL-1596), mixed lysate 1:2
T2 sequence (O60674 whole entry): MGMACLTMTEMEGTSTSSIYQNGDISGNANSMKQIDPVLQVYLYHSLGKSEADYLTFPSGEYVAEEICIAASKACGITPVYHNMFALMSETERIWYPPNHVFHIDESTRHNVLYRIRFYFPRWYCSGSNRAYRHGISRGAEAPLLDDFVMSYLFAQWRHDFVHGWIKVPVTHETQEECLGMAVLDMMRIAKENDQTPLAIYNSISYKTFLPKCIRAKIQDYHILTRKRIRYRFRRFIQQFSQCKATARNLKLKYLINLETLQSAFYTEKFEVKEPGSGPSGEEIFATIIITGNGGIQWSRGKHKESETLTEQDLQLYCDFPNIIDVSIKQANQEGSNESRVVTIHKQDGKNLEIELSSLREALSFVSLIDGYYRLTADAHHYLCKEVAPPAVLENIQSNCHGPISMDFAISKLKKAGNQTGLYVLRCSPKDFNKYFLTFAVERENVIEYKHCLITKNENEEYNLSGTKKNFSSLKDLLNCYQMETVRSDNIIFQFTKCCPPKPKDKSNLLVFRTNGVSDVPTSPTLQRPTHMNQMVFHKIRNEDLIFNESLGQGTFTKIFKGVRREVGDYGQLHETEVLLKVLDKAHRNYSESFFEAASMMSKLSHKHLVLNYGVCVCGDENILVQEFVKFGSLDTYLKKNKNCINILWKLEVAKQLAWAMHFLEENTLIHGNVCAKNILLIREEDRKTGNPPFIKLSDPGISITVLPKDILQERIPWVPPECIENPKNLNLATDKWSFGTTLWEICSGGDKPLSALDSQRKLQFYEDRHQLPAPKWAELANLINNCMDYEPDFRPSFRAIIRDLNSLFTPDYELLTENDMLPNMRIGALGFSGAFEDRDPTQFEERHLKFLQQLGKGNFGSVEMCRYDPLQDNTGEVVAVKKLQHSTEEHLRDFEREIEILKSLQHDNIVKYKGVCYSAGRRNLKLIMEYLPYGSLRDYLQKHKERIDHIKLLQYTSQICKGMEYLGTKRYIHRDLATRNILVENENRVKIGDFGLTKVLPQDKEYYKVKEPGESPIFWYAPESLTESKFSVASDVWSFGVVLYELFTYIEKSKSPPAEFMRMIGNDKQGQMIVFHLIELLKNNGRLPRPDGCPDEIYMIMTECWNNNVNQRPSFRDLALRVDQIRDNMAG
Method: as §1, §2, §3, §4, §5, §6

| IC50 (TYK2) [nM] | IC50 (JAK2) [nM] | SMILES |
| --- | --- | --- |
| 10 to 100 | 1000 to 10000 | C[C@H](CO)NC(=O)Cn1cc(Nc2nccc(NCc3c(F)cc(F)cc3F)n2)cn1 [Example I-456] |
| 1000 to 10000 | 1000 to 10000 | NC(=O)Cn1cc(Nc2ncc(Cl)c(NCc3cccnc3O)n2)cn1 [Example I-405] |
| ≤ 10 | 1000 to 10000 | COc1ccc(F)c(CNc2nc(Nc3cnn(CC(=O)N(C)C)c3)ncc2F)c1F [Example I-13] |
| 100 to 1000 | 1000 to 10000 | CN(CC#N)C(=O)Cn1cc(Nc2ncc(Cl)c(NCc3ccccc3)n2)cn1 [Example I-238] |
| 10 to 100 | 100 to 1000 | CS(=O)(=O)c1ccc(F)cc1CNc1nc(Nc2cnn(CCO)c2)ncc1F [Example I-488] |
| ≤ 10 | 100 to 1000 | Cc1cnc(Nc2cnn(CC(=O)N[C@H](C)CO)c2)nc1NCc1c(F)cc(F)cc1F [Example I-35] |
| 1000 to 10000 | 1000 to 10000 | COc1c(F)cc(F)cc1CNc1nc(Nc2cnn(CC(F)(F)F)c2)ncc1C [Example I-352] |
| 10 to 100 | 1000 to 10000 | N#CC1CN(C(=O)Cn2cc(Nc3ncc(Cl)c(NCc4ccccc4)n3)cn2)C1 [Example I-274] |
| 10 to 100 | 1000 to 10000 | Cc1ccc(F)c(CNc2nc(Nc3cnn(CC(=O)N(C)C)c3)ncc2Cl)c1F [Example I-283] |
| 10 to 100 | > 10000 | CC(C)NC(=O)Cn1cc(Nc2nccc(NCc3c(Cl)cccc3Cl)n2)cn1 [Example I-76] |
| 100 to 1000 | 1000 to 10000 | Cc1cnc(Nc2cnn(CCO)c2)nc1NCc1ccccc1S(C)(=O)=O [Example I-433] |
| 100 to 1000 | 1000 to 10000 | CS(=O)(=O)c1cccc(CNc2nc(Nc3cnn(CCO)c3)ncc2Cl)c1 [Example I-363] |
| 10 to 100 | 1000 to 10000 | Cc1ccc(F)c(CNc2nc(Nc3cnn(CC(N)=O)c3)ncc2Cl)c1F [Example I-282] |
| ≤ 10 | 100 to 1000 | Cc1cnc(Nc2cnn(CC(=O)N3CCOCC3)c2)nc1NCc1c(F)ccc(F)c1F [Example I-423] |
| 10 to 100 | 1000 to 10000 | O=C(Cn1cc(Nc2ncc(Cl)c(NCc3ccccc3)n2)cn1)N1CCCC1 [Example I-196] |
| 10 to 100 | 1000 to 10000 | CC1(C)COCCN1C(=O)Cn1cc(Nc2ncc(F)c(NCc3c(F)cc(F)cc3F)n2)cn1 [Example I-309] |
| ≤ 10 | 1000 to 10000 | CC(C)NC(=O)Cn1cc(Nc2nccc(NCc3c(F)cccc3Cl)n2)cn1 [Example I-77] |
| 10 to 100 | > 10000 | CC(NC(=O)Cn1cc(Nc2nccc(NCc3c(F)cc(F)cc3F)n2)cn1)C(F)F (centres unmarked) [Example I-149] |
| 10 to 100 | 1000 to 10000 | Cn1cc(Nc2ncc(Cl)c(NCc3cc(OC(F)F)ccc3F)n2)cn1 [Example I-412] |
| 100 to 1000 | 100 to 1000 | Cn1cc(Nc2ncc(Cl)c(NCc3cccnc3F)n2)cn1 [Example I-406] |
| 10 to 100 | 1000 to 10000 | N#C[C@H]1CCN(C(=O)Cn2cc(Nc3ncc(Cl)c(NCc4ccccc4)n3)cn2)C1 [Example I-270] |
| 100 to 1000 | 100 to 1000 | NC(=O)Cn1cc(Nc2ncc(Cl)c(NCc3ccccc3)n2)cn1 [Example I-206] |
| ≤ 10 | 1000 to 10000 | Cc1cnc(Nc2cnn(CC(=O)N3CCOCC3)c2)nc1NCc1c(F)cc(F)cc1F [Example I-21] |
| 10 to 100 | 100 to 1000 | Cn1cc(Nc2ncc(F)c(NCc3c(Cl)ccc(Cl)c3F)n2)cn1 [Example I-457] |
| 100 to 1000 | 1000 to 10000 | Cn1cc(Nc2ncc(Cl)c(NCc3ncccc3F)n2)cn1 [Example I-260] |

| IC50 (TYK2) [nM] | IC50 (JAK2) [nM] | SMILES |
| --- | --- | --- |
| 10 to 100 | > 10000 | COC[C@H](C)NC(=O)Cn1cc(Nc2ncc(F)c(NCc3c(F)cc(F)cc3F)n2)cn1 [Example I-71] |
| 100 to 1000 | 1000 to 10000 | [2H]C([2H])(O)C([2H])([2H])n1cc(Nc2ncc(Cl)c(NCc3cccc(OC)c3)n2)cn1 [Example I-235] |
| 100 to 1000 | 1000 to 10000 | CC(O)Cn1cc(Nc2ncc(Cl)c(NCc3ccccc3)n2)cn1 (centres unmarked) [Example I-216] |
| 1000 to 10000 | > 10000 | CS(=O)(=O)c1ccccc1CNc1nc(Nc2cnn(CC(F)(F)F)c2)ncc1Cl [Example I-475] |
| 10 to 100 | 1000 to 10000 | Cc1cnc(Nc2cnn(CCO)c2)nc1NCc1ccc(S(N)(=O)=O)cc1 [Example I-8] |
| 100 to 1000 | 100 to 1000 | CN1CCC(n2cc(Nc3ncc(Cl)c(NCc4ccccc4)n3)cn2)C1=O (centres unmarked) [Example I-253] |
| 100 to 1000 | 100 to 1000 | OCCn1cc(Nc2ncc(Cl)c(NCc3cccc(C(F)F)c3)n2)cn1 [Example I-293] |
| 10 to 100 | 1000 to 10000 | O=C(Cn1cc(Nc2nccc(NCc3c(F)cccc3Cl)n2)cn1)NCCF [Example I-140] |
| ≤ 10 | 1000 to 10000 | COc1ccc(Cl)c(CNc2ccnc(Nc3cnn(CC(=O)NC(C)C)c3)n2)c1F [Example I-79] |
| ≤ 10 | 100 to 1000 | Cc1cnc(Nc2cnn(CC(=O)N3CCOCC3)c2)nc1NCc1c(F)cccc1F [Example I-305] |
| 100 to 1000 | 1000 to 10000 | Cc1cnc(Nc2cnn(CC(F)(F)F)c2)nc1NCc1cc(F)ccc1F [Example I-353] |
| 100 to 1000 | 100 to 1000 | Fc1ccc(F)c(CNc2nc(Nc3cnn(C(F)F)c3)ncc2Cl)c1 [Example I-223] |
| ≤ 10 | 1000 to 10000 | CC(C)NC(=O)Cn1cc(Nc2nccc(NCc3c(F)ccc(F)c3F)n2)cn1 [Example I-63] |
| 100 to 1000 | 100 to 1000 | OCCn1cc(Nc2ncc(Cl)c(NCc3cc(Br)cc(F)c3F)n2)cn1 [Example I-264] |
| 10 to 100 | 1000 to 10000 | Cc1cnc(Nc2cnn(CC(=O)NC3CC3)c2)nc1NCc1cccc(F)c1F [Example I-341] |
| 100 to 1000 | 1000 to 10000 | CNC(=O)Cn1cc(Nc2ncc(Cl)c(NCc3cccc(CS(C)(=O)=O)c3)n2)cn1 [Example I-445] |
| 10 to 100 | 1000 to 10000 | Cc1ccc(F)c(CNc2nc(Nc3cn[nH]c3)ncc2Cl)c1F [Example I-371] |
| 10 to 100 | 100 to 1000 | O=C(Cn1cc(Nc2ncc(Cl)c(NCc3cccc(F)c3F)n2)cn1)N1CCOCC1 [Example I-178] |
| 10 to 100 | 100 to 1000 | Cc1cnc(Nc2cnn(CC(F)F)c2)nc1NCc1c(F)ccc(F)c1F [Example I-87] |
| 100 to 1000 | 1000 to 10000 | CS(=O)(=O)NCc1cccc(CNc2nc(Nc3cnn(CC(N)=O)c3)ncc2Cl)c1 [Example I-397] |
| 100 to 1000 | 1000 to 10000 | Cc1cnc(Nc2cnn(CC(=O)N(C)C)c2)nc1NCc1cc(F)cc(C(F)(F)F)c1 [Example I-330] |
| 100 to 1000 | 1000 to 10000 | CN(Cc1cccc(CNc2nc(Nc3cnn(CCO)c3)ncc2Cl)c1)S(C)(=O)=O [Example I-398] |
| 10 to 100 | 1000 to 10000 | O=C(Cn1cc(Nc2nccc(NCc3c(F)cc(F)cc3F)n2)cn1)NCCF [Example I-90] |
| 100 to 1000 | 100 to 1000 | Fc1ccccc1CNc1nc(Nc2cn[nH]c2)ncc1Cl [Example I-369] |
